Measurements taken from publication PMC7263498 (bioRxiv, 2020).

Biological target: M^Pro (SARS-CoV-2 main protease) (Severe acute respiratory syndrome coronavirus 2, UniProt P0DTD1)
Assay: FRET peptide
Assay type: biochemical

CN1CCN(CC(=O)N2c3ccccc3C(=O)Nc3cccnc32)CC1 [Pirenzepine]
% activation at 1 mM: > 15%
